From patent JP2013241470A, “ペプチド含有組成物” (Kikkoman Corp, priority 2013, dated 2013)

Target: T1, ACE (angiotensin converting enzyme) (アンジオテンシン変換酵素) (Oryctolagus cuniculus, UniProt P12822)
T1 construct: 0.3U/ml ACE(ウサギ肺由来、シグマ製); purchased Sigma (シグマ); host or cells: rabbit lung tissue
T1 sequence (P12822 34-1310): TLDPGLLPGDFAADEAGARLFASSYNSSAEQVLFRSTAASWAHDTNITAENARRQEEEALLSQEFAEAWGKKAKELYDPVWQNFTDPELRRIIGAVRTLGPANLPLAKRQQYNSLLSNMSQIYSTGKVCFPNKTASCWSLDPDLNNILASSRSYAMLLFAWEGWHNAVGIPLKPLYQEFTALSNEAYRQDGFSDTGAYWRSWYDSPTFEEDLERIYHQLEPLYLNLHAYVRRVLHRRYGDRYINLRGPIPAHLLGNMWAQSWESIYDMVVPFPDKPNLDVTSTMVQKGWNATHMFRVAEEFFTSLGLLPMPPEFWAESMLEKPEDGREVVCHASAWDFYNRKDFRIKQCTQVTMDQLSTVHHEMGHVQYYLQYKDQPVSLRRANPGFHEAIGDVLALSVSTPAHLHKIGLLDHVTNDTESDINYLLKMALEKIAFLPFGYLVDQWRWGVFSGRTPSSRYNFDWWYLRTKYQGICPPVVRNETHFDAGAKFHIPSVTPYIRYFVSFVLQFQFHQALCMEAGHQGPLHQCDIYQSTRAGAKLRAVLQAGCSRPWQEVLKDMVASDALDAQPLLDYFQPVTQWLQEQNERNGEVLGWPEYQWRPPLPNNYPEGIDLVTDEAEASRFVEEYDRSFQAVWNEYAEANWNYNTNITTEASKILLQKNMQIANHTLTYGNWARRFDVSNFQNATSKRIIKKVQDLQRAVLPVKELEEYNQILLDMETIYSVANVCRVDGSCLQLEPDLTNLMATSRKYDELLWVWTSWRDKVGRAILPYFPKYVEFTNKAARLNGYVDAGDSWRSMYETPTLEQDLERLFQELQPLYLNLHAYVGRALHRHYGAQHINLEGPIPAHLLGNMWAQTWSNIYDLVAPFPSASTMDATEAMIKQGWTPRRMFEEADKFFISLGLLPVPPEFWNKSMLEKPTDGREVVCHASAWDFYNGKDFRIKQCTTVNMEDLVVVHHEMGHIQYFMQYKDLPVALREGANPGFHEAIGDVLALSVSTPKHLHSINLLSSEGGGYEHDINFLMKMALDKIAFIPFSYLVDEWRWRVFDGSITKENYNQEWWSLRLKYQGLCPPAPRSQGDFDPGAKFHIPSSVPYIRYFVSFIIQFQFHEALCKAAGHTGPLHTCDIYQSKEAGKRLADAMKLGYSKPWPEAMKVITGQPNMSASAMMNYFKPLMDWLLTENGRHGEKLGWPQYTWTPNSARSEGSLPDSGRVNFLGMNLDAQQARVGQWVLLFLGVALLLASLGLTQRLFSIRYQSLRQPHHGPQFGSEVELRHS
Assay: ACE inhibitory activity (modified Cushman method, Hippuryl-His-Leu substrate)
Assay type: biochemical, rabbit

For Tyr−Thr, the ACE inhibitory activity (chemically synthesised peptide, compared with known soybean-derived ACE inhibitory peptides (Table 1, not visible), ACE from rabbit lung, 37 °C, 30 min, pH 8.3) was “既知のペプチドと比較して充分に強い活性を有している” and the ACE inhibitory activity (chromatographic fractions during isolation from composition 1 (組成物1)) was “矢印で示したピークにのみ活性が見られた”.
